The text below walks through data of patent US8372847B2, “Pyrazinone modulator of corticotropin-releasing factor receptor activity” (Bristol-Myers Squibb Company, priority 2008, dated 2013).

One assay deals with T1, human CRF1 receptors (Homo sapiens, UniProt P34998).
T1 construct: the native CRF1 receptors present on the human retinoblastoma cell line Y79; endogenous in cells; host or cells: Y79 human retinoblastoma cells
T1 sequence (P34998 24-415): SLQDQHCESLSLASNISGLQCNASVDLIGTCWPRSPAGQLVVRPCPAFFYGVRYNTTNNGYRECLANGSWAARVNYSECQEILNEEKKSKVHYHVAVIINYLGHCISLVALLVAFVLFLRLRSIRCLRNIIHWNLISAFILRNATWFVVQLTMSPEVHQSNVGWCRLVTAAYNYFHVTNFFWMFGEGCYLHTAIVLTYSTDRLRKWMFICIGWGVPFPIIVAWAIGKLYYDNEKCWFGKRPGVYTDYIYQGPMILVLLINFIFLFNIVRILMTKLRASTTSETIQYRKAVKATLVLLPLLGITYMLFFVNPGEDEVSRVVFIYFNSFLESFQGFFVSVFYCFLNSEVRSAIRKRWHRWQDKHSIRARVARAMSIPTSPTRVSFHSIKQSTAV
The assay can be described thus: hCRF1 binding assay, 125I-o-CRF competition, Y79 cell membranes. To be noted: native human CRF1 receptors, Y79 retinoblastoma cells; n=3; read-out: IC50, inhibition of 125I-o-CRF binding to Y79 membrane. The protocol:
hCRF1 Binding Assay. Membranes were prepared for binding using Y79 cells, a human retinoblastoma line that natively expresses human CRF1 receptors [Hauger, R., et al., Journal of Neurochemistry 68: 2308-2316, (1997)]. Briefly, cells were grown and collected then the pellet homogenized in assay buffer containing 50 mM Hepes (pH 7.0 at 23° C.), 10 mM MgCl2, 2 mM EGTA, 1 μg/ml aprotinin, 1 μg/ml leupeptin, 1 μg/ml pepstatin A, 0.005% Triton X-100, 10 U/ml bacitracin and 0.1% ovalbumin. The suspension was centrifuged at 32000×g for 30 minutes. The resulting supernatant was discarded and the pellet resuspended by homogenization in assay buffer and centrifuged again. The supernatant was discarded and the pellet resuspended by homogenization in assay buffer and aliquots frozen at −70° C. On the day of the experiment aliquots were thawed quickly and 25 μg/well added to 150 pM ^125I-ovine-CRF and drugs in a total volume of 100 μl assay buffer. The assay mixture was incubated for 2 hr at 21° C. Bound and free radioligand were then separated by rapid filtration using glass fiber filters (Whatman GF/B, pretreated with 0.3% PEI) on a Brandel Cell Harvester. […] Filters were then counted in a Wallac Wizard gamma counter. IC50 values were determined in a five point (five drug concentrations) competition assay using non-linear regression by Microsoft Excel-fit. […]

The target of the next assay is T2, CRF1 receptor (Rattus norvegicus, UniProt P35353).
T2 construct: rat frontal cortex membrane as the receptor source; from tissue; host or cells: rat frontal cortex
T2 sequence (P35353 24-415): T1 sequence (P34998 24-415) with H6R, S9N, A13T, I16V, M153V, G163A, I209V, Y229H, H356R
Description: CRF1 binding assay, 125I-o-CRF competition, rat frontal cortex membrane. Particulars: n=10; for Hill Slope: 125I-o-CRF binding, rat frontal cortex membrane; for IC50: 5 point and 10 point competition assays, read-out: IC50, inhibition of 125I-o-CRF binding to rat frontal cortex membrane. How it is done:
CRF1 Binding Assay. Frozen rat frontal cortex was thawed rapidly in assay buffer containing 50 mM Hepes (pH 7.0 at 23° C.), 10 mM MgCl2, 2 mM EGTA, 1 μg/ml aprotinin, 1 μg/ml leupeptin, 1 μg/ml pepstatin A, 0.005% Triton X-100, 10 U/ml bacitracin and 0.1% ovalbumin and homogenized. The suspension was centrifuged at 32000×g for 30 minutes. The resulting supernatant was discarded and the pellet resuspended by homogenization in assay buffer and centrifuged again. The supernatant was discarded and the pellet resuspended by homogenization in assay buffer and frozen at −70° C. On the day of the experiment aliquots of the homogenate were thawed quickly and 25 μg/well added to 150 pM ^125I-ovine-CRF (^125I-o-CRF) and drugs in a total volume of 100 μl assay buffer. The assay mixture was incubated for 2 hr at 21° C. Bound and free radioligand were then separated by rapid filtration using glass fiber filters (Whatman GF/B, pretreated with 0.3% PEI (polyethylenimine)) on a Brandel Cell Harvester. Filters were then washed multiple times with ice cold wash buffer (PBS w/o Ca^2+ and Mg^2+, 0.01% Triton X-100; pH 7.0 at 23° C.). Non-specific binding was defined using 1 μM DMP696, a CRF1 selective antagonist [Li, Y-W. et al., CNS Drug Reviews 11: 21-52, (2005)]. Filters were then counted in a Wallac Wizard gamma counter. IC50 values were determined in a five point (five drug concentrations) or ten point (ten drug concentrations) competition assay using non-linear regression by Microsoft Excel-fit.
Binding Results. The primary screen to determine binding potency (IC50 value) of (S)-4-(1-cyclopropyl-2-methoxyethyl)-6-(6-(difluoromethoxy)-2,5-dimethylpyridin-3-ylamino)-5-oxo-4,5-dihydropyrazine-2-carbonitrile at the CRF1 receptor was a competition binding experiment utilizing ^125I-o-CRF as the labeled peptide ligand and rat frontal cortex membrane as the receptor source. […] (S)-4-(1-Cyclopropyl-2-methoxyethyl)-6-(6-(difluoromethoxy)-2,5-dimethylpyridin-3-ylamino)-5-oxo-4,5-dihydropyrazine-2-carbonitrile also bound with high affinity to the native CRF1 receptors present on the human retinoblastoma cell line Y79.

The structures appear in SMILES notation. Numbering of substitutions follows the chain as printed.

For `COCC(COC)Nc1nc(C)nc2c(-c3ccc(Cl)cc3Cl)c(C)nn12` [DMP696], on human CRF1 receptors, the IC50 stood at 1.71 ± 0.53 nM. Also, at CRF1 receptor, the “Hill Slope” value came out at 1.00±0.02 and the IC50 is 1.39 ± 0.09 nM.

For the compound `COC[C@H](C1CC1)n1cc(C#N)nc(Nc2cc(C)c(OC(F)F)nc2C)c1=O` [(S)-4-(1-cyclopropyl-2-methoxyethyl)-6-(6-(difluoromethoxy)-2,5-dimethylpyridin-3-ylamino)-5-oxo-4,5-dihydropyrazine-2-carbonitrile], the IC50 at human CRF1 receptors amounted to 1.81 ± 0.46 nM. Besides, on CRF1 receptor, the “Hill Slope” value came out at 0.94±0.03 and the IC50 was found to be 0.86 ± 0.04 nM.
